{"source": "patent US11046691B1", "about": "(IDEAYA BIOSCIENCES, INC., priority 2018, dated 2021)", "data": [{"biological_target": "hMAT2A (Homo sapiens (Human), UniProt P31153)", "sequence (P31153 whole entry)": "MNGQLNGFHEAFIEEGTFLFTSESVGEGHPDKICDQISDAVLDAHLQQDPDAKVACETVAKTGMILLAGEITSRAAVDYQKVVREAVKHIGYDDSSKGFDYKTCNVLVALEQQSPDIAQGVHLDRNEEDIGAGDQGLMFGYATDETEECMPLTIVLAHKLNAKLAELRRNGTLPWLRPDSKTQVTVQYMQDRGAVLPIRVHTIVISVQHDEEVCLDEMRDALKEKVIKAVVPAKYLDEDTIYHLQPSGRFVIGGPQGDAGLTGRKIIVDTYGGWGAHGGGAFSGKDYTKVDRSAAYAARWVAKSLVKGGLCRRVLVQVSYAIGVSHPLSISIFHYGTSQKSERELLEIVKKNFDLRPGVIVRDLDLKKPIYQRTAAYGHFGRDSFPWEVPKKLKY", "assay": "Phosphate Sensor Fluorescence Assay (MAT2A enzyme inhibition)", "assay_type": "biochemical", "settings": "L-methionine 500 uM, ATP 500 uM, class symbols", "procedure": "(§1) The ability of the compound of present disclosure to inhibit MAT2A enzyme was determined using the Malachite Green or Phosphate Sensor Fluorescence Assay described below.\n(§2) B. Phosphate Sensor Fluorescence Assay\n(§3) MAT2A enzyme is incubated with a test compound in DMSO or DMSO and its substrates (L-methionine and ATP) in a microtiter plate. The enzymatic reaction is stopped by the addition of Working Phosphate Sensor Mixture. The plate is analyzed for fluorescence at 450 nm.\n(§4) Assay Buffer: 50 mM Tris, pH 7.5/50 mM KCl/10 mM MgCl2/0.01% Brij-35/1 mM DTT/0.1% BGG/40 nM PNP/6 uM 7-MEG\n(§5) L-methionine: 500 uM before the addition of Working Phosphate Sensor Mixture\n(§6) ATP: 500 uM before the addition of Working Phosphate Sensor Mixture\n(§7) Test compounds or DMSO were added to the appropriate well suing D300e digital dispenser. 5 μl/well of Assay Buffer was added to the wells corresponding to the negative control and 5 μl/well of MAT2A was added to all the wells except for those corresponding to the negative control. After incubating the plate at room temperature for 15 minutes, 5 μl/well of the 1 mM L-methionine/1 mM ATP mixture was added to all wells. The plate was centrifuged at 1000 rpm for 1 minute and then incubated at room temperature for 1 hour. 5 μl of the Working Phosphate Sensor Mixture was added to all wells and the plate was centrifuged at 1000 rpm for 1 minute. The plate was read for fluorescence at 450 nm after exciting at 430 nm.\n(§8) Percent inhibition was calculated in Chemical and Biological Information System (CBIS), (ChemInnovation Software Inc.). Curves were fitted by CBIS as % inhibition vs. log [compound concentration] using a 4-parameter inhibition model. Fit=(A+((B−A)/(1+((C/x)^D)))) Res=(y−fit)", "units": {"IC50": "nM"}, "values": [{"smiles": "COc1nc(=O)n(-c2ccccc2)c2cc(C3CC3)ccc12", "note": "[Example 399, 7-cyclopropyl-4-methoxy-1-phenyl-hydroquinazolin-2-one]", "IC50": "< 200"}, {"smiles": "CNc1nc(=O)n(-c2ncccc2C)c2nc(C(F)(F)F)ccc12", "note": "[Example 260, 1-(3-methyl(2-pyridyl))-4-(methyl-amino)-7-(trifluoromethyl)pyrido[2,3-d]-pyrimidin-2(1H)-one]", "IC50": "< 200"}, {"smiles": "CNc1nc(=O)n(-c2cccc(C(F)F)c2)c2cc(Cl)ccc12", "note": "[Example 355]", "IC50": "< 200"}, {"smiles": "O=c1nc(N[C@H]2C[C@@H](O)C2)c2ccc(C(F)(F)F)nc2n1-c1ccccc1Cl", "note": "[Example 321]", "IC50": "< 200"}, {"smiles": "Cc1c(O)cccc1-n1c(=O)[nH]c(=O)c2ccc(Cl)cc21", "note": "[Example 110, 7-chloro-1-(3-hydroxy-2-methylphenyl)-1,3-dihydroquinazoline-2,4-dione]", "IC50": "< 200"}, {"smiles": "CNc1nc(=O)n(-c2ccccc2Br)c2cc(Cl)ccc12", "note": "[Example 225, 1-(2-bromophenyl)-7-chloro-4-(methylamino)quinazolin-2-one]", "IC50": "< 200"}, {"smiles": "Nc1nc(=O)n(-c2ccccc2)c2cc(Cl)cc(-n3cccn3)c12", "note": "[Example 387, 4-amino-7-chloro-1-phenyl-5-pyrazol-1-ylhydroquinazolin-2-one]", "IC50": "1000 to 10000"}, {"smiles": "CN(Cc1cccnc1)c1nc(=O)n(-c2ccccc2)c2cc(Cl)ccc12", "note": "[Example 235, 7-chloro-4-[methyl(pyridin-3-ylmethyl)-amino]-1-phenylhydroquinazolin-2-one]", "IC50": "< 200"}, {"smiles": "N#Cc1cccc(-n2c(=O)nc(N3CC[C@H](O)C3)c3ccc(C(F)(F)F)nc32)c1", "note": "[Example 182, (S)-3-(4-(3-hydroxypyrrolidin-1-yl)-2-oxo-7-(trifluoromethyl)pyrido[2,3-d]pyrimidin-1(2H)-yl)benzonitrile]", "IC50": "< 200"}, {"smiles": "COc1nc(=O)n(-c2ccccc2)c2cc(C(F)(F)F)ccc12", "note": "[Example 144, 4-methoxy-1-phenyl-7-(trifluoromethyl)-hydroquinazolin-2-one]", "IC50": "200 to 500"}, {"smiles": "C[C@]1(O)C[C@@H](Nc2nc(=O)n(-c3ccccc3Cl)c3nc(C(F)(F)F)ccc23)C1", "note": "[Example 268, 1-(2-chlorophenyl)-4-(((1s,3s)-3-hydroxy-3-methylcyclobutyl)amino)-7-(trifluoromethyl)pyrido[2,3-d]pyrimidin-2(1H)-one]", "IC50": "< 200"}, {"smiles": "O=c1nc(N2CCSC2)c2ccc(C(F)(F)F)nc2n1-c1ccccc1", "note": "[Example 346, 1-phenyl-4-(1,3-thiazolidin-3-yl)-7-(trifluoromethyl) pyrido[2,3-d]-pyrimidin-2(1H)-one]", "IC50": "< 200"}, {"smiles": "[2H]C([2H])([2H])Nc1nc(=O)n(-c2ccccc2C)c2cc(C(F)(F)F)ccc12", "note": "[Example 367, 4-((methyl-d3)amino)-1-(o-tolyl)-7-(trifluoromethyl)quinazolin-2(1H)-one]", "IC50": "< 200"}, {"smiles": "O=c1nc(O)c2ccc(Cl)cc2n1-c1ccc2[nH]ncc2c1", "note": "[Example 357, 1-(1H-indazol-5-yl)-7-chloro-4-hydroxy-hydroquinazolin-2-one]", "IC50": "1000 to 10000"}, {"smiles": "N#Cc1cccc(-n2c(=O)nc(N3CC(O)C3)c3ccc(C(F)(F)F)nc32)c1", "note": "[Example 162, 3-(4-(3-hydroxyazetidin-1-yl)-2-oxo-7-(trifluoromethyl)pyrido[2,3-d]pyrimidin-1(2H)-yl)benzonitrile]", "IC50": "< 200"}, {"smiles": "CN(CC(F)F)c1nc(=O)n(-c2ccccc2)c2cc(Cl)ccc12", "note": "[Example 205, 4-[(2,2-difluoroethyl)methylamino]-7-chloro-1-phenylhydroquinazolin-2-one]", "IC50": "< 200"}, {"smiles": "Nc1nc(=O)n(-c2ccccc2)c2cc(C(F)(F)F)ccc12", "note": "[Example 146, 4-amino-1-phenyl-7-(trifluoromethyl)-hydroquinazolin-2-one]", "IC50": "< 200"}, {"smiles": "O=c1nc(N[C@@H]2CC[C@@H]2O)c2ccc(C(F)(F)F)nc2n1-c1ccccc1Cl", "note": "(atropisomer, axis not shown; (Sa)) [Example 335, 4-[((2S,1R)-2-hydroxycyclobutyl)-amino]-(1Sa)-(2-chlorophenyl)-7-(trifluoromethyl)hydro-pyrido[2,3-d]-pyrimidin-2(1H)-one]", "IC50": "< 200"}, {"smiles": "C[C@@]1(O)CCN(c2nc(=O)n(-c3ccccc3)c3cc(Cl)ccc23)C1", "note": "[Example 217, 4-((3R)-3-hydroxy-3-methylpyrrolidin-1-yl)-7-chloro-1-phenylhydroquinazolin-2-one]", "IC50": "200 to 500"}, {"smiles": "CO[C@@H]1CCN(c2nc(=O)n(-c3ccccc3)c3cc(Cl)ccc23)C1", "note": "[Example 189, (R)-7-chloro-4-(3-methoxypyrrolidin-1-yl)-1-phenylquinazolin-2(1H)-one]", "IC50": "< 200"}, {"smiles": "Nc1nc(=O)n(-c2ccccc2)c2nc(C(F)(F)F)ccc12", "note": "[Example 138, 4-amino-1-phenyl-7-(trifluoromethyl)-hydropyridino[2,3-d]pyrimidin-2-one]", "IC50": "< 200"}, {"smiles": "CN(C)c1nc(=O)n(-c2cccc(CCCc3ccccc3)c2)c2cc(Cl)ccc12", "note": "[Example 227, 4-(dimethylamino)-7-chloro-1-[3-(3-phenylpropyl)phenyl]hydroquinazolin-2-one]", "IC50": "< 200"}, {"smiles": "[2H]C([2H])([2H])Nc1nc(=O)n(-c2ccccc2Cl)c2nc(C(F)(F)F)ccc12", "note": "[Example 379, 1-(2-chlorophenyl)-4-((methyl-d3)-amino)-7-(trifluoromethyl)pyrido[2,3-d]pyrimidin-2(1H)-one]", "IC50": "< 200"}, {"smiles": "O=c1nc(NCC(F)(F)F)c2ccc(C3CC3)cc2n1-c1ccccc1", "note": "[Example 385, 7-cyclopropyl-1-phenyl-4-[(2,2,2-trifluoroethyl)amino]hydroquinazolin-2-one]", "IC50": "< 200"}, {"smiles": "O=c1nc(N2CC[C@@H](O)C2)c2ccc(Cl)cc2n1-c1ccc2[nH]ncc2c1", "note": "[Example 279, (R)-7-chloro-4-(3-hydroxypyrrolidin-1-yl)-1-(1H-indazol-5-yl)quinazolin-2(1H)-one]", "IC50": "< 200"}, {"smiles": "COc1nc(=O)n(-c2ncccn2)c2cc(C(F)(F)F)ccc12", "note": "[Example 120]", "IC50": "1000 to 10000"}, {"smiles": "CNc1nc(=O)n(-c2cccc(O)c2C)c2cc(Cl)ccc12", "note": "[Example 157, 7-chloro-1-(3-hydroxy-2-methylphenyl)-4-(methylamino)hydroquinazolin-2-one]", "IC50": "< 200"}, {"smiles": "CNc1nc(=O)n(-c2cccnc2C)c2cc(C(F)(F)F)ccc12", "note": "[Example 284]", "IC50": "< 200"}, {"smiles": "O=c1nc(N2CC[C@@H](O)C2)c2ccc(C3CC3)cc2n1-c1ccccc1", "note": "[Example 374, 4-((3R)-3-hydroxypyrrolidinyl)-7-cyclopropyl-1-phenylhydroquazolin-2-one]", "IC50": "< 200"}, {"smiles": "C[C@H](CO)Nc1nc(=O)n(-c2ccccc2Cl)c2nc(C(F)(F)F)ccc12", "note": "(atropisomer, axis not shown) [Example 323, (R)-(1Sa)-(2-chlorophenyl)-4-((1-hydroxypropan-2-yl)amino)-7-(trifluoro-methyl)pyrido-[2,3-d]pyrimidin-2(1H)-one]", "IC50": "< 200"}, {"smiles": "O=c1nc(N2CC[C@@H](O)C2)c2ccc(C(F)(F)F)cc2n1-c1ccccc1Cl", "note": "[Example 395, 4-((3R)-3-hydroxypyrrolidin-1-yl)-1-(2-chlorophenyl)-7-(trifluoromethyl)hydro-quinazolin-2-one]", "IC50": "< 200"}, {"smiles": "O=c1nc(N2CC[C@@H](O)C2)c2ccc(Cl)cc2n1-c1ccccc1Cl", "note": "(atropisomer, axis not shown) [Example 135, 4-((3R)-3-hydroxypyrrolidin-1-yl)-7-chloro-1-(2-chlorophenyl)hydro-quinazolin-2-one]", "IC50": "< 200"}, {"smiles": "CC1(Nc2nc(=O)n(-c3ccccc3Cl)c3nc(C(F)(F)F)ccc23)CC1", "note": "[Example 88, 1-(2-chlorophenyl)-4((1-methylcyclo-propyl)amino)-7-(trifluoromethyl)-pyrido[2,3-d]pyrimidin-2(1H)-one]", "IC50": "< 200"}, {"smiles": "CNc1nc(=O)n(-c2cccc3ncsc23)c2nc(C(F)(F)F)ccc12", "note": "[Example 381, 1-benzothiazol-7-yl-4-(methylamino)-7-(trifluoromethyl)pyrido[2,3-d]pyrimidin-2(1H)-one]", "IC50": "< 200"}, {"smiles": "CNc1nc(=O)n(-c2ccnc(O)c2)c2nc(C(F)(F)F)ccc12", "note": "[Example 391, 1-(2-hydroxypyridin-4-yl)-4-(methyl-amino)-7-(trifluoromethyl)-pyrido[2,3-d]pyrimidin-2(1H)-one]", "IC50": "< 200"}]}, {"biological_target": "hMAT2A (Homo sapiens (Human), UniProt P31153)", "assay": "Phosphate Sensor Fluorescence Assay (MAT2A enzyme inhibition)", "assay_type": "biochemical", "settings": "L-methionine 500 uM, ATP 500 uM, numeric bound", "procedure": "as §1, §2, §3, §4, §5, §6, §7, §8", "units": {"IC50": "nM"}, "values": [{"smiles": "CN(C)c1nc(=O)n(-c2ccccc2)c2cc(-c3cscn3)ccc12", "note": "[Example 228, 4-(dimethylamino)-1-phenyl-7-(1,3-thiazol-4-yl)hydroquinazolin-2-one]", "IC50": "> 10000"}, {"smiles": "CNc1nc(=O)n(-c2ncc(C)s2)c2cc(Cl)ccc12", "note": "[Example 116, 7-chloro-1-(5-methyl(1,3-thiazol-2-yl))-4-(methylamino)hydroquinazolin-2-one]", "IC50": "> 10000"}, {"smiles": "CNc1nc(=O)n(-c2ccccc2)c2cc(Cl)cc(-n3cccn3)c12", "note": "[Example 208, 7-chloro-4-(methylamino)-1-phenyl-5-(1H-pyrazol-1-yl)quinazolin-2(1H)-one]", "IC50": "> 10000"}, {"smiles": "CNc1nc(=O)n(-c2ccccc2)c2c(Cl)c(C(F)(F)F)ccc12", "note": "[Example 343, 8-chloro-4-(methylamino)-1-phenyl-7-(trifluoromethyl)hydroquinazolin-2-one]", "IC50": "> 10000"}]}]}
